ChEMBL document CHEMBL3046341, “Synthesis of an indolizidinedione oxime inhibitor of acetyl-coenzyme a carboxylase (ACCase)” (Bioorg Med Chem Lett, 1994)

Assay: Inhibition of acetyl-coenzyme A carboxylase
Conditions: read-out: I50

Row | IC50 | Structure (SMILES)
1 | 80 µM | C=CCO/N=C(\CCC)C1=C(O)N2CCCCC2C1=O (stereo not drawn)
2 | 15 µM | O=C1C(c2ccc(Cl)cc2Cl)=C(O)N2CCCCC12 (stereo not drawn)

Row | Structure (SMILES) | IC50
3 | CCO/N=C(\CC)C1=C(O)CC(c2c(C)cc(C)cc2C)CC1=O (stereo not drawn) [TRALKOXYDIM] | 1 µM
